From EP4692094A1 (Beijing Konruns Pharmaceutical Co., Ltd., priority 2023, dated 2024)

Key:
KAT6A = target: T1, KAT6A (Homo sapiens, UniProt Q92794); test: Enzymatic activity assay for KAT6A acetyltransferase (TR-FRET, acetylation of histone substrate H3); type: biochemical
T1 construct: purchased active motife (Active Motif) 81223
Protocol: The acetylation effect of KAT6A on histone substrate H3 was determined using the TR-FRET (time-resolved fluorescence resonance energy transfer) method.
• 1) The compounds prepared in the examples of the present disclosure were each dissolved in dimethylsulfoxide to give solutions at a concentration of 10 mmol/L, and then the solutions were diluted to 0.2 mmol/L, i.e., 1 µL of the compound was added to 49 µL of DMSO, and 3-fold dilution was performed to give 10 concentrations. • 2) 50 nL of the test compounds (example compounds) were transferred to 384 reaction plates using Echo, two replicates for each compound, and the plates were centrifuged at a rotation speed of 1000 rpm for 1 min, the final concentration of dimethylsulfoxide (DMSO) being 0.5%. • 3) 2.5 µL of the reaction mixtures obtained in step 2 was added to the 384 reaction plates in step 2), and the plates were centrifuged at 1000 rpm for 1 min and incubated at 25 °C for 10 min. • 4) 2.5 µL of Bio-H3&AcCOA (acetyl-CoA) reaction solution was added to the 384 reaction plates in step 3), and the plates were centrifuged at a rotation speed of 1000 rpm for 1 min and incubated at 25 °C for 90 min. • 5) 5 µL of Eu-Ab& Ulight-SA detection solution was added to the 384 reaction plates in step 4), and the plates were centrifuged at 1000 rpm for 1 min and incubated at 25 °C for 60 min. • 6) The HTRF […] signals were read using a BMG high-throughput drug-screening multi-mode microplate reader.
The acetylation level of the histone H3 was analyzed by the GraphPad Prism 8 software. The reading of the negative control (0.5% DMSO wells) was set as 0% inhibition rate, and the reading of the positive control (wells with the highest concentration of the control compound) was set as 100% inhibition rate. The inhibition rates were calculated, and then IC50 values (half maximal inhibitory concentration) of test compounds were obtained by using a software nonlinear fitting formula; [formula]
Datapositive control: mean of positive control well values; Datanegative control: mean of negative control well values. Table 3. Enzymatic inhibitory activity of example compounds

[1] = system: human breast cancer cell line ZR-75-1; test: Assay for cell growth inhibitory activity (3D hydrogel culture, CCK-8); type: cell-based; settings: 96 h; for viability at 0.0001 µM: ZR-75-1, 0.1 nM, read-out: Cell survival rate at example drug concentration 0.1 nM; for viability at 0.001 µM: ZR-75-1, 1 nM, read-out: Cell survival rate at example drug concentration 1 nM; for viability at 0.01 µM: ZR-75-1, 10 nM, read-out: Cell survival rate at example drug concentration 10 nM; for viability at 0.1 µM: ZR-75-1, 100 nM, read-out: Cell survival rate at example drug concentration 100 nM; for viability at 1 µM: ZR-75-1, 1000 nM, read-out: Cell survival rate at example drug concentration 1000 nM
Protocol: The human breast cancer cell line ZR-75-1 (1 × 10^^6 cells per cell culture dish with 100-mm diameter) was cultured in a 1640 culture medium, and 1% double antibiotics (streptomycin and penicillin), 10% fetal bovine serum (FBS), and 1% glutamine (Glumax) were added simultaneously. The cell culture dish was placed at 37 °C with 5% CO2 for 2 days for culture until the cell confluence reached 80%-90% to give cells in the logarithmic growth phase.
• 1) The example compounds were each dissolved in dimethylsulfoxide to give solutions at a concentration of 10 mmol/L, and the solutions were diluted to 250 µmol/L in 10-fold gradient for 5 concentrations, i.e., 0.2 nmol/L, 2 nmol/L, 20 nmol/L, 200 nmol/L, and 2000 nmol/L. • 2) Blank control wells were prepared by adding 0.1% dimethylsulfoxide to the cultured cells, and were used as high-reading control wells; cell-free 3D hydrogel was used as background wells. • 3) The cultured cells were separately added to the compounds in the examples at 0.2 nmol/L, 2 nmol/L, 20 nmol/L, 200 nmol/L, and 2000 nmol/L as test wells, with the same volumes as the original culture solutions.
• 1) The cells were collected, resuspended in a PBS balanced salt solution, and counted; and the cells were mixed with the 3D hydrogel stock solution and prepared into hydrogel cell suspensions with proper density. • 2) The 3D hydrogel cell suspension (5 × 10^^4 cells) was added to each well in 96-well cell culture plates with low surface adsorption, and the plates were incubated at 37 °C with 5% CO2 for 20 min. • 3) The complete culture medium containing the compound prepared in 1.2 with an equal volume to that of the cell suspension in step 2 was added to the 96-well cell culture plate. • 4) The cells were cultured at 37 °C in a 5% CO2 incubator for 96 h.
• 1) The complete culture medium in the upper layer above the hydrogel was pipetted from each well of the 96-well cell culture plate with a vacuum pump or a manual pipette with careful processing to avoid breaking the hydrogel lower layer. • 2) The complete culture medium containing the CCK-8 substrate with an equal volume to that of the original hydrogel was added to each well. • 3) The plate was cultured at 37 °C with 5% CO2 for 1 h. • 4) The 96-well cell culture plate was placed in a microplate reader, and the values of A450 and A630 were separately detected.
Data analysis: The relative inhibitory level was analyzed by using Excel software, and the survival rates of cells under different compound culture conditions were obtained; [formula]
High-reading control well: cells + dimethylsulfoxide; background well: cell-free hydrogel. Table 7. Cell proliferation inhibitory activity of some of example compounds

[2] = In-vivo pharmacokinetic study in rats; design: species or system SD female rats; settings: female, SD, rat, plasma, po, 5 mg/kg, intragastric administration; for AUC(0-t): read-out: AUC0-24h
Protocol: 1.1 Instrument: high-performance liquid chromatograph: SHIMADZU LC-30AD; mass spectrum: AB SCIEX mass spectrometer Triple Quad 5500; all measured data were calculated and processed using Microsoft Excel, and relevant pharmacokinetic parameters were calculated using WinNonlin software. The main obtained kinetic parameters are Tmax, T1/2, Cmax, AUC0-24 h, and AUCinf. […] Sample injection amount: 1 µL.
1.2 Animals: three SD female rats were used. The body weight range was 180-300 g. After purchase, the rats were bred in the experimental animal center for two days for later use. The rats were fasted 12 h before administration and 4 h after administration, and given ad libitum access to water during the assay. Blood samples were taken at predetermined time points after intragastric administration.
1.3 Vehicle: 0.5% HPMC (hydroxypropyl methylcellulose) + 0.4% Tween80 + 99.1% water. Preparation of intragastric administration solution: The compound was precisely weighed, the vehicle was added, and then the drug was completely dissolved by ultrasonication at room temperature for 5 min and prepared into a 0.5 mg/mL solution. After the intragastric administration, blood samples were taken at 0.083 h, 0.25 h, 0.5 h, 1.0 h, 2.0 h, 4.0 h, 7.0 h, and 24 h. The blood collection mode is as follows: 0.2 mL of the jugular vein blood was collected, EDTA-K2 was used as an anticoagulation agent, the collected blood sample was transferred into a microcentrifuge tube containing the anticoagulation agent, and the tube was centrifuged at 4 °C and 4000 g for 5 min to separate the plasma. All plasma samples collected were stored at -75±15 °C until analysis.
The compound was precisely weighed and prepared into a standard curve working solution and a quality control working solution at different concentrations. The blank plasma was added and prepared into a plasma standard curve and a quality control sample. LC/MS/MS analysis was performed after pretreatment using a protein precipitation method, and then the concentration of the compounds described above in the plasma was measured. All measured data were collected and processed by the relevant software, and pharmacokinetic parameters were calculated using Winnonlin software. Table 9. Pharmacokinetic parameters of some compounds in the examples in rats

[3] = Assay for plasma protein binding rate (equilibrium dialysis), mouse plasma; type: in vitro ADME; settings: dialysis 6 h at 37 °C, read-out: Mouse (Fu%)
Protocol: (§1) 1.1 Preparation of compounds: The compounds prepared in the examples were each dissolved in dimethylsulfoxide to give solutions at a concentration of 10 mmol/L. • 1) The example compounds were each diluted from 10 mmol/L stock solution to 0.2 mmol/L, i.e., 1 µL of the compound was added to 49 µL of DMSO; • 2) 3 µL of 0.2 mmol/L test compounds were added to 597 µL of blood plasma, and the mixtures were vortexed at 1000 rpm for 2 min; • 3) 50 µL of the plasma containing the drug in 2) was taken, 50 µL of PBS was added, and 300 µL of methanol internal standard* was added to serve as a sample T0; • 4) 120 µL of the plasma containing the drug in 2) was taken and added to one side of an HTD device membrane, and 120 µL of PBS was added to the other side of the membrane; a breathable film was covered, and the plasma and the residual sample in 2) were balanced at 37 °C (100 rpm and 5% CO2) for 6 h; • 5) 50 µL of the dialyzed plasma side sample was taken, 50 µL of PBS was added, and 300 µL of methanol internal standard* was added to serve as a sample P; • 6) 50 µL of the dialyzed PBS side sample was taken, 50 µL of blank plasma was added, and 300 µL of methanol internal standard* was added to serve as a sample B; • 7) 50 µL of the plasma containing the drug in 2) was taken, 50 µL of PBS was added, and 300 µL of methanol internal standard* was added to serve as a sample T6; • 8) All samples were vortexed, mixed homogeneously, and then centrifuged at 3220 g for 40 min at 4 °C; • 9) 100 µL of the supernatant and 100 µL of purified water were mixed homogenously for liquid chromatography-mass spectrometry.
(§2) An internal standard method was used, and the plasma protein binding rate, recovery rate, and residual percentage were calculated by using Excel according to the ratio of the peak area of the sample to the peak area of the internal standard. Free rate(%) = (RatioB)/(RatioP) × 100% [formula] Binding rate(%) = 100%−Free rate% [formula] Recovery rate(%) = (RatioB + RatioP)/(RatioT0) × 100% [formula] Remaining percentage(%) = (RatioT6)/(RatioT0) × 100% [formula]
(§3) RatioB: a ratio of the peak area of the test substance on the PBS side to the peak area of the internal standard; RatioP: a ratio of the peak area of the test substance on the plasma side to the peak area of the internal standard; RatioT6: a ratio of the peak area of the sample after incubation with the test substance for 6 h to the peak area of the internal standard; RatioT0: a ratio of the peak area of the sample after incubation with the test substance for 0 h to the peak area of the internal standard. Table 8. Plasma protein binding rate (Fu%) data for various species of example compounds

[4] = Assay for plasma protein binding rate (equilibrium dialysis), human plasma; type: in vitro ADME; settings: dialysis 6 h at 37 °C, read-out: Human (Fu%)
Protocol: as §1, §2, §3

T1 sequence (Q92794 whole entry): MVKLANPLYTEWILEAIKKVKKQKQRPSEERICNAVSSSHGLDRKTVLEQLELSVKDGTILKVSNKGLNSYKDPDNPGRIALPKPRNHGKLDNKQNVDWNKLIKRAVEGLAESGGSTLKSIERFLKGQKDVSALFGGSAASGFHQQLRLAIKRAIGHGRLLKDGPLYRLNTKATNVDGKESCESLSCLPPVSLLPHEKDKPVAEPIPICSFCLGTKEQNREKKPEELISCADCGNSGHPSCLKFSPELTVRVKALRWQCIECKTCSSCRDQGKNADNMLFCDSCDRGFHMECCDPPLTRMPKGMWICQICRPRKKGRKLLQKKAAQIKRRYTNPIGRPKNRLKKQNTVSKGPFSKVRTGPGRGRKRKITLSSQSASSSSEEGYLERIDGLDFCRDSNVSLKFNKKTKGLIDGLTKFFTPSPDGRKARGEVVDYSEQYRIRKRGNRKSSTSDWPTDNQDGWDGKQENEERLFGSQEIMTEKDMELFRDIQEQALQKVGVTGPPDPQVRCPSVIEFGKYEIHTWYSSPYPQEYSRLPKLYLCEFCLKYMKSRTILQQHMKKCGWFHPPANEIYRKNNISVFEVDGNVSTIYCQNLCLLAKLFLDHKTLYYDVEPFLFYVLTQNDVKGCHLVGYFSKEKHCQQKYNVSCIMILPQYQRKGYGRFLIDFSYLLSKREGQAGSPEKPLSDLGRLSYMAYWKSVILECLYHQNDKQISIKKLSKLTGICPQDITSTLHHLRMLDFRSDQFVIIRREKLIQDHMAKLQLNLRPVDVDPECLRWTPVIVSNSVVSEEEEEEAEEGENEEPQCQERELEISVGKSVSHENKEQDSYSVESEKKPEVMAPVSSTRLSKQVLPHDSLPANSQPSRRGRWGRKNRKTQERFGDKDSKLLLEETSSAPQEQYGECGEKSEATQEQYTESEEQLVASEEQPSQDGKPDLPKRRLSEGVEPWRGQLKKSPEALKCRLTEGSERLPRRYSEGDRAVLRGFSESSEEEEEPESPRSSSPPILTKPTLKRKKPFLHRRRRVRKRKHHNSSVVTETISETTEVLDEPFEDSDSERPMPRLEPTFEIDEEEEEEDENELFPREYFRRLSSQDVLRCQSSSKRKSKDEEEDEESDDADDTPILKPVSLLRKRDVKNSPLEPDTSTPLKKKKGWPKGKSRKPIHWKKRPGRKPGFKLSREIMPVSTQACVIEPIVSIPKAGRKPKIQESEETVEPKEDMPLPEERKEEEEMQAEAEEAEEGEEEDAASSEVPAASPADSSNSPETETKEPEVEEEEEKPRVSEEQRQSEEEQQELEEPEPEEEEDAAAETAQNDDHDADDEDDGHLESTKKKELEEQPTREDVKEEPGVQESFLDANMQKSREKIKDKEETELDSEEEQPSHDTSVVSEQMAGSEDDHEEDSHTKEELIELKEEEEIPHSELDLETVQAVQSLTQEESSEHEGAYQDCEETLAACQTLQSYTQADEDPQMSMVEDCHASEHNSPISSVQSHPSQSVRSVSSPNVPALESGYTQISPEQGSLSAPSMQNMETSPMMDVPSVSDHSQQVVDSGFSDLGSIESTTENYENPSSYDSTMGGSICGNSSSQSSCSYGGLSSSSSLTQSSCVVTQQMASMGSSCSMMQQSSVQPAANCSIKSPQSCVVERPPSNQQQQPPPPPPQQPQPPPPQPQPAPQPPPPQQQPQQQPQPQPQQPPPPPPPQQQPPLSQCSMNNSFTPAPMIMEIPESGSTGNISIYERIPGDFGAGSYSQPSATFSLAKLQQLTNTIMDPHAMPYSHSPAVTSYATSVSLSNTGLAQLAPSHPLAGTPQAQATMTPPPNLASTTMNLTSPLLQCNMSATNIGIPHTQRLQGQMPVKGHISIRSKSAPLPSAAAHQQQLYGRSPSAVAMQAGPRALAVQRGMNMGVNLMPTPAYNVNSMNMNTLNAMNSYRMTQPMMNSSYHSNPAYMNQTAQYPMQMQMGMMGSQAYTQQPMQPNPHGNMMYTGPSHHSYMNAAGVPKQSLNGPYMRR

COc1nc(Cn2cccn2)cc2onc(NS(=O)(=O)c3cccc4c3OCC4)c12 [Example 1, N-(6-((1H-pyrazol-1-yl)methyl)-4-methoxyisoxazolo[4,5-c]pyridin-3-yl)-2,3-dihydrobenzofuran-7-sulfonamide]
IC50 (KAT6A): 7.33 nM | viability at 0.0001 µM [1]: 95% | viability at 0.001 µM [1]: 80% | viability at 0.01 µM [1]: 54% | viability at 0.1 µM [1]: 40% | viability at 1 µM [1]: 30%

COc1ccc2c(c1S(=O)(=O)Nc1noc3cc(Cn4cccn4)nc(OC)c13)CCCC2 [Example 3]
IC50 (KAT6A): 1.76 nM | viability at 0.0001 µM [1]: 71% | viability at 0.001 µM [1]: 55% | viability at 0.01 µM [1]: 43% | viability at 0.1 µM [1]: 40% | viability at 1 µM [1]: 29%

COc1nc(Cn2cccn2)cc2onc(NS(=O)(=O)c3cccc4c3ccn4C)c12 [Example 6, N-(6-((1H-Pyrazol-1-yl)methyl)-4-methoxyisoxazolo[4,5-c]pyridin-3-yl)-1-methyl-1H-indole-4-sulfonamide]
half-life [2]: 1480 min | AUC(0-inf) [2]: 1300 µg·h/mL | Cmax [2]: 31600 ng/mL | Tmax [2]: 19.8 min | AUC(0-t) [2]: 502 µg·h/mL | IC50 (KAT6A): 3.11 nM | viability at 0.0001 µM [1]: 74% | viability at 0.001 µM [1]: 66% | viability at 0.01 µM [1]: 45% | viability at 0.1 µM [1]: 38% | viability at 1 µM [1]: 25%

COc1ccc2cccnc2c1S(=O)(=O)Nc1noc2cc(Cn3cccn3)nc(OC)c12 [Example 11, N-(6-((1H-Pyrazol-1-yl)methyl)-4-methoxyisoxazolo[4,5-c]pyridin-3-yl)-7-methoxyquinoline-8-sulfonamide]
AUC(0-inf) [2]: 32 µg·h/mL | Cmax [2]: 3310 ng/mL | Tmax [2]: 49.8 min | AUC(0-t) [2]: 32 µg·h/mL | IC50 (KAT6A): 0.77 nM

COc1nc(Cn2cccn2)cc2onc(NS(=O)(=O)c3cccc4c3OCO4)c12 [Example 28, N-(6-((1H-Pyrazol-1-yl)methyl)-4-methoxyisoxazolo[4,5-c]pyridin-3-yl)-1,3-benzodioxole-4-sulfonamide]
fraction unbound at 6 h, 1 µM [3]: 0.0205 | IC50 (KAT6A): 3.55 nM | fraction unbound at 6 h, 1 µM [4]: 0.0086

COc1ccc2occc2c1S(=O)(=O)Nc1noc2cc(Cn3cccn3)nc(OC)c12 [Example 45, N-(6-((1H-Pyrazol-1-yl)methyl)-4-methoxyisoxazolo[4,5-c]pyridin-3-yl)-5-methoxybenzofuran-4-sulfonamide]
fraction unbound at 6 h, 1 µM [3]: 0.0145 | IC50 (KAT6A): 9.45 nM | fraction unbound at 6 h, 1 µM [4]: 0.0066

COc1cc2c(c(OC)c1S(=O)(=O)Nc1noc3cc(Cn4cccn4)nc(OC)c13)CCC2 [Example 62, N-(6-((1H-Pyrazol-1-yl)methyl)-4-methoxyisoxazolo[4,5-c]pyridin-3-yl)-4,6-dimethoxy-2,3-dihydro-1H-indene-5-sulfonamide]
half-life [2]: ≤ 600 min | AUC(0-inf) [2]: 450 µg·h/mL | Cmax [2]: 25600 ng/mL | Tmax [2]: 70.2 min | AUC(0-t) [2]: 356 µg·h/mL | IC50 (KAT6A): 0.84 nM
